Reference: patent US11993599B2, “Therapeutic compounds” (Genentech, Inc., priority 2021, dated 2024)

Assays:
Assay type in all cases: cell-based
[1] = target: T1, BRM (Homo sapiens, UniProt P51531); test: Immunofluorescence assay for BRM degradation in SW1573 cells; parameters: treated overnight at 4° C. with either BRM primary antibody (Cell signaling Cat #11966) or BRG primary antibody; endogenous in cells; host or cells: SW1573; conditions: 20 hours incubation; for DC50: immunofluorescence mean nuclear signal, read-out: BRM IF Degradation IC50; for BRM IF Degradation Sinf (%): normalized to a known degrader control
Outline: (§1)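 Imaging-based readout in SW1573: 20 h dosing, formaldehyde fixation, antibody staining for either remodeler, nuclear intensity per cell quantified. Values normalized to control degrader; floating-maximum fit.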

[2] = target: T2, BRG1 (Homo sapiens, UniProt P51532); test: Immunofluorescence assay for BRG1 degradation in SW1573 cells; conditions: 20 hours incubation; for DC50: immunofluorescence mean nuclear signal, read-out: BRG1 IF Degradation IC50; for Dmax: SW1573, 20 h, normalized to a known degrader control, read-out: BRG1 IF Degradation Sinf (%)
T2 construct: either BRM primary antibody (Cell signaling Cat #11966) or BRG primary antibody (Abcam, ab 110641); endogenous in cells; host or cells: SW1573
Outline: as §1

[3] = target: T1, BRM; test: HiBIT nanoluciferase complementation screen for BRM degraders; conditions: 18 hours, BRM-HiBIT KI Hela cells, luminescence normalized: DMSO only = 0%, no cells = −100%; for Median HiBiT activity 1 μM: compound 1 μM; for Median HiBiT activity 10 μM: compound 10 μM
Excerpt: Example B-1: HiBIT Nanoluciferase Complementation Screen for BRM Degraders
To assess BRM degradation, compounds were screened for their effect of BRM levels using the HiBIT nanoluciferase complementation strategy developed at Promega. In brief, a HELA cell line that was genetically modified via CRISPR/CAS9 was used to fuse the HiBIT sequence at the 3′ end of BRM (BRM-HiBIT KI Hela). BRM protein levels were then detected using the Nano-Glo HiBIT lytic detection reagent (Promega).
The screened compounds were plated into a white 384-well plate at 10 μM and 1 μM in 25 nL DMSO using an Echo dispenser (Labcyte). BRM-HiBIT KI Hela cells were seeded in the compound plate at 5000 cell per well at 25 μl in DMEM growth media (containing 10% FBS, 1% Glutamax (GIBCO cat #31053-028), lx Penicillin-Streptomycin (ROCHE, cat #1107444001), 4.5 g/L D-Glucose, and no phenol red). After incubation with compounds for 18 hours at 37° C., cell viability was assessed by the addition of 5 μl Cell Titer-Fluor reagent (Promega). After 30 s of mixing on an orbital shaker, and 30 minutes incubation at 37° C., fluorescence was measured with an INFINITE F500 (Tecan) (380-400 nm excitation, 505 nm emission). Next, to assess BRM HiBIT levels, 30 μl of Nano-Glo HiBIT lytic detection reagent (Promega) containing 1:50 Nano-Glo HiBIT lytic substrate and 1:100 LgBIT protein per ml of lytic buffer was added. After shaking on an orbital shaker at 350 rpm for 10 minutes, luminescence was measured on the INFINITE F500 (Tecan). To assess compound effects, luminescence signal was normalized with the mean of wells treated with DMSO only set to 0% and the mean of wells containing no cells set to −100%. Note that, in Table 4, the “Compound Number” corresponds to that used in Table 1.

T2 sequence (P51532 whole entry): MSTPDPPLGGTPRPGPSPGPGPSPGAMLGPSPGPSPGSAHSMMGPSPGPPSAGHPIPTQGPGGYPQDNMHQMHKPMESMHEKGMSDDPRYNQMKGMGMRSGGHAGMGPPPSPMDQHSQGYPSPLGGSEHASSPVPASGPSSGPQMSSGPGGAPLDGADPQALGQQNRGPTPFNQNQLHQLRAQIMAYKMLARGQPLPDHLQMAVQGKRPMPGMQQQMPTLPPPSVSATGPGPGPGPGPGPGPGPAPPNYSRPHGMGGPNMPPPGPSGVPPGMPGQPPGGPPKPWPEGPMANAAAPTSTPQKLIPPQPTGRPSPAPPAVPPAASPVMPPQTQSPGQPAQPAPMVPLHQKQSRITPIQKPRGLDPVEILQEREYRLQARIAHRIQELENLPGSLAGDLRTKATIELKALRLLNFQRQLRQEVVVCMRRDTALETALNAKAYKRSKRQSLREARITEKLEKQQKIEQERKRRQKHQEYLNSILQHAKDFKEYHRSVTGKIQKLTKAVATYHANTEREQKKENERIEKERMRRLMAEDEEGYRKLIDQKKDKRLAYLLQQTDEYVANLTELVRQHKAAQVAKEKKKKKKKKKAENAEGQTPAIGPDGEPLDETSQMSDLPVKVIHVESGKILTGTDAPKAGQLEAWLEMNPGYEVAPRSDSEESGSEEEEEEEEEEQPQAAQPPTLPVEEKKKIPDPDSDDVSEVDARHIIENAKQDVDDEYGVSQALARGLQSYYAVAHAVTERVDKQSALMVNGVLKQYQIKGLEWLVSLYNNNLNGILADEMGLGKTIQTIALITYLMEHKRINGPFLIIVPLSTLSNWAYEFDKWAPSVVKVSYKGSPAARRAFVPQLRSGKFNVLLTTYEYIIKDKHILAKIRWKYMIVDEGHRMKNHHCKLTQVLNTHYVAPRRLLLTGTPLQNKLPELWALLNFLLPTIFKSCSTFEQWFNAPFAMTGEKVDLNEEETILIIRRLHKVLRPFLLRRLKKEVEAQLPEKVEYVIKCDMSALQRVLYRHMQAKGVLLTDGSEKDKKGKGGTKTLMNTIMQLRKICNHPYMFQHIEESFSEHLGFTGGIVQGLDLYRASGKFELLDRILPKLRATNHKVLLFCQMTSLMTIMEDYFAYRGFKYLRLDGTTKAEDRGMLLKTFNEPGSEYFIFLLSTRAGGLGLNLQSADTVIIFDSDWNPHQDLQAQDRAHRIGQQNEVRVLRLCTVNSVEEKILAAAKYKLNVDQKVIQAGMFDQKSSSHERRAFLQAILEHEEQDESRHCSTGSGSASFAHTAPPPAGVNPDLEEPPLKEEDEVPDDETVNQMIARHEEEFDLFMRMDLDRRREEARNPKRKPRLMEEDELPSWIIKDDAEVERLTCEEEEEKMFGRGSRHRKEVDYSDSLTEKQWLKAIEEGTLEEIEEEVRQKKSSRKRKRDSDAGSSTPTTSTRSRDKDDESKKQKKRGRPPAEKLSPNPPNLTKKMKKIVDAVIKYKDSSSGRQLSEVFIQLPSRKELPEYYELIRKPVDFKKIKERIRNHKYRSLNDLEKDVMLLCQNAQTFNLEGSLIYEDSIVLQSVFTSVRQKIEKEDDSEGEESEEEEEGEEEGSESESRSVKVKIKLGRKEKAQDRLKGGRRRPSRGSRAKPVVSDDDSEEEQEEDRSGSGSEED
T1 sequence (P51531 whole entry): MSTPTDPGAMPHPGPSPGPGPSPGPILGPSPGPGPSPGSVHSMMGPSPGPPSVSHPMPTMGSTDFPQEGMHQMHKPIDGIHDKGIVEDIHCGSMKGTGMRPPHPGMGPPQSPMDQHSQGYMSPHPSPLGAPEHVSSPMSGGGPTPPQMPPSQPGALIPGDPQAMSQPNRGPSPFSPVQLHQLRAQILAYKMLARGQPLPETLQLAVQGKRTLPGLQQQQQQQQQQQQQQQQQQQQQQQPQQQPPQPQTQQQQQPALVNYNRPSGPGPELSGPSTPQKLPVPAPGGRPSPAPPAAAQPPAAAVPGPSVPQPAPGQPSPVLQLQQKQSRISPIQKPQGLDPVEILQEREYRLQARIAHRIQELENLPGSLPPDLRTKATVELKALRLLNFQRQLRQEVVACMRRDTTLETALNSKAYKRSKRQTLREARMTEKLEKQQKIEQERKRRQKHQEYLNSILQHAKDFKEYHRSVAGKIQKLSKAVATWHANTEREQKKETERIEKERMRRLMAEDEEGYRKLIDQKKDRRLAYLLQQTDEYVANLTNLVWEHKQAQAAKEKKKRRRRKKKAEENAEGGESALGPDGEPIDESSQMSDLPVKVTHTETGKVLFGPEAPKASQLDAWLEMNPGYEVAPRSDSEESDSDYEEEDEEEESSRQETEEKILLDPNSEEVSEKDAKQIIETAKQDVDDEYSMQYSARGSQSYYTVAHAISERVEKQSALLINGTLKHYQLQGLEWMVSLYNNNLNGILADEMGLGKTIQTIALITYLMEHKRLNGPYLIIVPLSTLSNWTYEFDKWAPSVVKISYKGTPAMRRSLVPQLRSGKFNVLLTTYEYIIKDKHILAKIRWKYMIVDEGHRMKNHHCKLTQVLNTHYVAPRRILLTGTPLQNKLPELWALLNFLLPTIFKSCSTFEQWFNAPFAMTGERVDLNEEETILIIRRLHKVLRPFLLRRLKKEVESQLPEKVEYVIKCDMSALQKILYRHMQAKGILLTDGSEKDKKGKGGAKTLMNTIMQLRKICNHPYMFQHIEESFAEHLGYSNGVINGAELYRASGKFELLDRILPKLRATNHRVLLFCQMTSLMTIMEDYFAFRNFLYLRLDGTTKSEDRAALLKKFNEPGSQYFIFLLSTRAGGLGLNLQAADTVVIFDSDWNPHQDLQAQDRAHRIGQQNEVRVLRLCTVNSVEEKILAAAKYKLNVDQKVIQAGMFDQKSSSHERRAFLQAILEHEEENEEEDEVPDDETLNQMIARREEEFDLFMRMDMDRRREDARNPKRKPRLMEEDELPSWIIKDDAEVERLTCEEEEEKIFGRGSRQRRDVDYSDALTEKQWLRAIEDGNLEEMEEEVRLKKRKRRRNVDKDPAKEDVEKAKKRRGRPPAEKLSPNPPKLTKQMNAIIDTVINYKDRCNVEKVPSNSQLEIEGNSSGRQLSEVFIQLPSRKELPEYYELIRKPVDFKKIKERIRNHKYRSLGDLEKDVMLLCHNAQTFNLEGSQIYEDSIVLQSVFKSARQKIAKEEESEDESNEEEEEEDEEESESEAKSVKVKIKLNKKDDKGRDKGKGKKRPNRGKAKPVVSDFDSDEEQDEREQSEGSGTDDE

Structure (SMILES): Nc1nnc(-c2ccccc2O)cc1N1CC2CCC(C1)N2c1ccnc(C#CCCO)c1 [Compound 26, 2-(6-amino-5-(8-(2-(4-hydroxybut-1-yn-1-yl)pyridin-4-yl)-3,8-diazabicyclo[3.2.1]octan-3-yl)pyridazin-3-yl)phenol]
- DC50 [1]: > 100 nM
- DC50 [2]: > 100 nM
- Median HiBiT activity 1 μM [3]: −25.9348%
- Median HiBiT activity 10 μM [3]: −28.4202%

Structure (SMILES): Nc1nnc(-c2ccccc2O)cc1N1CC2CCC(C1)N2c1ccnc(C#CCCCCO)c1 [Compound 27, 2-(6-amino-5-(8-(2-(6-hydroxyhex-1-yn-1-yl)pyridin-4-yl)-3,8-diazabicyclo[3.2.1]octan-3-yl)pyridazin-3-yl)phenol]
- DC50 [1]: > 100 nM
- BRM IF Degradation Sinf (%) [1]: D (D indicates 0-−30%)
- DC50 [2]: > 100 nM
- Median HiBiT activity 1 μM [3]: −23.7734%
- Median HiBiT activity 10 μM [3]: −28.4819%

Structure (SMILES): Nc1nnc(-c2ccccc2O)cc1N1CC2CCC(C1)N2c1ccnc(C#CCN2CCNCC2)c1 [Compound 28, 2-(6-amino-5-(8-(2-(3-(piperazin-1-yl)prop-1-yn-1-yl)pyridin-4-yl)-3,8-diazabicyclo[3.2.1]octan-3-yl)pyridazin-3-yl)phenol]
- DC50 [1]: > 100 nM
- BRM IF Degradation Sinf (%) [1]: E (E indicates −30%-−70%)
- DC50 [2]: > 100 nM
- Median HiBiT activity 1 μM [3]: −23.3156%
- Median HiBiT activity 10 μM [3]: −44.9026%

Structure (SMILES): Nc1nnc(-c2ccccc2O)cc1N1CC2CCC(C1)N2c1ccnc(C#C[C@H]2CC[C@H](N)CC2)c1 [Compound 29, 2-(6-amino-5-(8-(2-(((1r,4r)-4-aminocyclohexyl)ethynyl)pyridin-4-yl)-3,8-diazabicyclo[3.2.1]octan-3-yl)pyridazin-3-yl)phenol]
- DC50 [1]: > 100 nM
- DC50 [2]: > 100 nM
- Median HiBiT activity 1 μM [3]: −22.4859%
- Median HiBiT activity 10 μM [3]: −33.4085%

Structure (SMILES): NCCC#Cc1cc(N2C3CCC2CN(c2cc(-c4ccccc4O)nnc2N)C3)ccn1 [Compound 30, 2-(6-amino-5-(8-(2-(4-aminobut-1-yn-1-yl)pyridin-4-yl)-3,8-diazabicyclo[3.2.1]octan-3-yl)pyridazin-3-yl)phenol]
- DC50 [1]: > 100 nM
- BRM IF Degradation Sinf (%) [1]: E (E indicates −30%-−70%)
- DC50 [2]: > 100 nM
- Dmax [2]: 0 to 30%
- Median HiBiT activity 1 μM [3]: −18.8155%
- Median HiBiT activity 10 μM [3]: −47.5549%

Structure (SMILES): Nc1nnc(-c2ccccc2O)cc1N1CC2CCC(C1)N2c1ccnc(C#CCN2CCCC(N)C2)c1 (stereo not shown) [Compound 31, 2-(6-amino-5-(8-(2-(3-(3-aminopiperidin-1-yl)prop-1-yn-1-yl)pyridin-4-yl)-3,8-diazabicyclo[3.2.1]octan-3-yl)pyridazin-3-yl)phenol]
- DC50 [1]: > 100 nM
- DC50 [2]: > 100 nM
- Median HiBiT activity 1 μM [3]: −16.7799%
- Median HiBiT activity 10 μM [3]: −47.9900%

Structure (SMILES): NCC(=O)NCCCc1cc(N2C3CCC2CN(c2cc(-c4ccccc4O)nnc2N)C3)ccn1 [Compound 32, 2-amino-N-(3-(4-(3-(3-amino-6-(2-hydroxyphenyl)pyridazin-4-yl)-3,8-diazabicyclo[3.2.1]octan-8-yl)pyridin-2-yl)propyl)acetamide]
- DC50 [1]: 10 to 100 nM
- BRM IF Degradation Sinf (%) [1]: E (E indicates −30%-−70%)
- DC50 [2]: 10 to 100 nM
- Dmax [2]: 0 to 30%
- Median HiBiT activity 1 μM [3]: −16.4623%
- Median HiBiT activity 10 μM [3]: −30.3732%

Structure (SMILES): NCCCc1cc(N2C3CCC2CN(c2cc(-c4ccccc4O)nnc2N)C3)ccn1 [Compound 33, 2-(6-amino-5-(8-(2-(3-aminopropyl)pyridin-4-yl)-3,8-diazabicyclo[3.2.1]octan-3-yl)pyridazin-3-yl)phenol]
- DC50 [1]: > 100 nM
- BRM IF Degradation Sinf (%) [1]: E (E indicates −30%-−70%)
- DC50 [2]: > 100 nM
- Dmax [2]: 30 to 70%
- Median HiBiT activity 1 μM [3]: −14.8996%
- Median HiBiT activity 10 μM [3]: −55.0132%
